Assay results as given in patent US20120128754A1, “TREATMENT OF EYE DISCOMFORT BY TOPICAL ADMINISTRATION OF A COOLING AGENT TO THE EXTERNAL SURFACE OF THE EYELID” (priority 2009, published 2012).
In brackets after ≈: the same amount, converted by molar mass.

Key:
[1] = Observed solubility in vehicle; assay type: physicochemical; conditions: for solubility in 1 or 2% ethanol-water solution: higher concentrations not achievable without more ethanol
Description: Wei, 2008 describes delivery of cooling compounds to the skin using a towelette. The wiping of the towelette across skin results in delivery of dermatologically active ingredient(s), meaning that the skin is substantially medicated. […] An ethanol/water mixture with an ethanol concentration of about 5 wt % is required in order to dissolve enough of these compounds to provide a sufficient degree of cooling to relieve eye discomfort; however, at this concentration the ethanol is irritating to the eye surface.
(§1) 2-[((1R,2S,5R)-2-isopropyl-5-methyl-cyclohexanecarbonyl)-amino]-acetic acid 3-hydroxypropyl ester, referred to as CPS-160 (see, e.g., Wei, 2008) was synthesized and tested. […] Thus, CPS-160 was not considered to be an optimal cooling agent for practicing the invention.
(§2) It has a good safety profile because the expected hydrolysis products are the carboxylic acid and glycerol.
Thus, water solubility, as embodied in CPS-030, is a key factor for an ideal API.

[2] = Stability of test solutions stored at room temperature (retention of cooling activity); assay type: physicochemical; conditions: saline solution
Description: as §1, §2

closed eyelids [3] = assay: Eye wipe test: cooling sensations after wiping test solution over closed eyelids; assay type: in vivo, human; conditions: for quality of cooling sensation: CPS-369 1 and 2 mg/mL, CPS-160 2 mg/mL, CPS-030 1, 2, 4, 8 mg/mL; for cooling potency relative to CPS-030: in vivo
Protocol: The general procedure for testing was to weigh an active ingredient and to disperse it within a saline solution (i.e., Bausch & Lomb, Sensitive Eyes Plus Saline Solution) at stock concentrations of 10 to 20 mg/mL. Test solutions were further diluted with isotonic saline. For single assays, a 1 mL scaled pipette was used to dispense 0.8 to 1 mL of test solution onto a sterile 2″×2″ (5 cm×5 cm) pad, made of rayon-polyester formed fabric (Walgreens Sterile Gauze Pads) weighing on average 285±9 mg.
In the next trials, the wet pad was wiped twice over the closed eyelids of each eye from the medial to the lateral canthus. By subtraction, the loss of weight of the pad averaged 32±1 mg. Thus, each eye received ˜16 μL of the test solution per eye. For a 1 mg/mL solution this was equivalent to ˜16 μg per eye.
The presence of cooling sensations was recorded at 2 and 5 minutes after wiping and at 5 minute intervals thereafter. The intensity of the subjective eye sensation was rated as 0, 1, 2 or 3 with: 0 as no change; 1 as slight coolness or cold; 2 as clear-cut signal of coolness or cold; and 3 as comfortable and soothing sensations of cooling or cold. Recording was continued until two successive zeroes were obtained. The data were plotted using SigmaPlot™ (Systat Software, Point Richmond Calif.).
The results for compound CPS-030 are illustrated in FIG. 1, and reflect the averaged values of 6 to 8 separate trials in the same individual.
FIG. 1 is a graph of cooling intensity versus hours after application of CPS-030 with eye wipes for four dosages (128 μg, 64 μg, 32 μg, and 16 μg; per eye), and illustrates the dose-response data for CPS-030 on cooling sensations after application with eye wipes. The dose reported in μg is per eye, based on solutions of 1.0, 2.0, 4.0 and 8.0 mg of CPS-030 per mL of saline, applied in a volume of 16 μL per eye. […] Confirmatory trials of cooling action for CPS-030 were obtained in 4 individuals.

closed eyelids [4] = assay: Case reports: eye wipe in subjects with eye strain or dry eyes syndrome; assay type: in vivo, human; conditions: person
Protocol: A person routinely spent about 12 hour each day in front of a computer monitor and developed headaches and blurred vision. A visit to a general physician gave a diagnosis of eye strain, but the addiction to the computer monitor continued. The subject found some relief by putting a cold wet towel on their face, but the relief was only temporary. They volunteered to test an eye wipe containing 0.8 mL of a 4 mg/mL solution of CPS-030 and was given instructions on how to wipe the solution onto the eyelids with the eyes closed. […] During this time, the subject watched a basketball playoff game on television and noted that they could clearly distinguish scores on the 46 inch (117 cm) HDTV monitor which were previously indecipherable. For example, they could clearly see scores of 65 vs. 66, and of 98 vs. 99. […] The subject continues to use the eye wipes as an aid to their vision on an “as needed basis”, and the improved visual acuity is a reproducible event.
Their principal complaints were of dryness, itch, and discomfort at the corner of their eyes and blurred vision. These symptoms were present on a daily basis at various levels of intensity. […] It was not clear if they adhered to a strict regimen of self-administration, but they complained of the eye drops running down their cheeks and the expense of the medications. When the symptoms were severe, the subject found some relief by wetting their eyes with cold tap water, but the relief was only temporary. They volunteered to test an eye wipe containing 0.8 mL of a 4 mg/mL solution of CPS-030, and was given instructions on how to apply the solution onto the eyelids with the eyes shut.

closed eyelids [5] = assay: Eye wipe test: cooling sensations after wiping test solution over closed eyelids; assay type: in vivo, human; conditions: for sensations accompanying cooling: 1 mg/mL in 1 or 2% ethanol-water, closed eyelids
[6] = dry eyes syndrome, eye wipe 0.8 mL of 4 mg/mL
[7] = eye strain, eye wipe 0.8 mL of 4 mg/mL

In the case of `CC(C)[C@@H]1CC[C@@H](C)C[C@H]1C(=O)NCC(=O)OCCCO` [CPS-160, 2-[((1R,2S,5R)-2-isopropyl-5-methyl-cyclohexanecarbonyl)-amino]-acetic acid 3-hydroxypropyl ester], the “solubility in saline solution” value [1] is reported as “solubilized in saline solution”, the “stability of solution stored at room temperature” value [2] is reported as “not stable and became inactive after 2 days” and the duration of cooling (closed eyelids [3]; 2 mg/mL in saline, eye wipe) is reported as “approximately 0.6 hours”. The “quality of cooling sensation” value (closed eyelids [3]; saline, eye wipe) was “Robust and refreshing cooling”.

With `CC(C)[C@@H]1CC[C@@H](C)C[C@H]1C(=O)OCC(O)CO` (stereo partly drawn) [Compound 1, (1R,2S,5R)-2-isopropyl-5-methyl-cyclohexanecarboxylic acid 2,3-dihydroxy-propyl ester] the “solubility in saline solution” value [1] was “miscible and solubilized in saline solution”, the “stability of solution stored at room temperature” value [2] was “retained biological potency when stored at room temperature for at least three weeks” and the sensations accompanying cooling (closed eyelids [3]; 32 μg, 64 μg and 128 μg per eye, saline, eye wipe) was “cooling was accompanied by a sensation of “wetness” and increased visual acuity”. For the same compound, the “duration of eye refreshment” value (closed eyelids [3]; 4.0 mg/mL in saline, 16 μL per eye, sterile pad) was “approximately 1 hour”, the “sensations of sting, irritation or pain” value (closed eyelids [3]; all dosages tested (16-128 μg per eye)) was “no sensations of sting, irritation, or pain” and the “effective dose via eye wipe” value (closed eyelids [3]; delivered via a 2.0 mg/mL solution in an eye wipe) was ~32 μg/eye. For the same compound, the “quality of cooling sensation” value (closed eyelids [3]; saline, eye wipe) was “Robust and refreshing cooling”, the “symptomatic relief on as-needed use” value (closed eyelids [4]; dry eyes syndrome, as needed for three months) was “expressed satisfaction at the relief of eye discomfort” and the “duration of cooling and soothing sensations” value (closed eyelids [4]; [6]) was “at least 1 hour”. For the same compound, the “onset of cooling and soothing sensations” value (closed eyelids [4]; [6]) was “Within two minutes”, the sensations reported (closed eyelids [4]; [6]) was “sensation of “wetness”, and a feeling of soothing and comfort” and the “duration of cooling and soothing sensations” value (closed eyelids [4]; [7]) was “at least two hours”. The “effect on visual acuity” value (closed eyelids [4]; [7]) was “increase in visual acuity” and the “onset of cooling and soothing sensations” value (closed eyelids [4]; [7]) was “Within two minutes”.

For `CC(C)[C@@H]1CC[C@@H](C)C[C@H]1C(=O)OCCOCCO` [Compound 2], the duration of cooling (closed eyelids [3]; 10 mg/mL, eye wipe) was “less than 30 minutes” and the cooling intensity (closed eyelids [3]; 10 mg/mL, eye wipe, scale 0-3) was < 2 coolness units.

For `CC(C)[C@@H]1CC[C@@H](C)C[C@H]1C(=O)OCCO` [Compound 3], the adverse sensations (closed eyelids [3]; higher two doses of 32 to 160 μg/eye range) was “brief period of warmth sensations on the eye surface and increased lachrymation” and the “cooling potency relative to CPS-030” value (closed eyelids [3]) was “about half the potency of CPS-030”.

With `COC(=O)[C@@H](C)NC(=O)[C@@H]1C[C@H](C)CC[C@H]1C(C)C` [Compound 9] the “solubility in 1 or 2% ethanol-water solution” value [1] was 1000 µg/mL (≈ 3.71 mM), the “cooling potency relative to CPS-030” value (closed eyelids [3]) was “more potent cooling activity than CPS-030” and the sensations accompanying cooling (closed eyelids [5]) was “without any sensations of wetness or increased visual acuity”.

In the case of `COC(=O)CNC(=O)[C@@H]1C[C@H](C)CC[C@H]1C(C)C` [Compound 10, reference compound], the “solubility in 1 or 2% ethanol-water solution” value [1] is reported as 1000 µg/mL (≈ 3.92 mM), the “cooling potency relative to CPS-030” value (closed eyelids [3]) is reported as “more potent cooling activity than CPS-030” and the sensations accompanying cooling (closed eyelids [5]) is reported as “without any sensations of wetness or increased visual acuity”.

With `CCOC(=O)[C@@H](C)NC(=O)[C@@H]1C[C@H](C)CC[C@H]1C(C)C` [Compound 12, (R)-2-[((1R,2S,5R)-2-isopropyl-5-methyl-cyclohexanecarbonyl)-amino]-propionic acid ethyl ester] the duration of cooling (closed eyelids [3]; 1 mg/mL dispersed in saline, eye wipe) was “approximately 1.5 hours”, the duration of cooling (closed eyelids [3]; 2 mg/mL in saline, eye wipe) was ~2.5 h and the “quality of cooling sensation” value (closed eyelids [3]; saline, eye wipe) was “Robust and refreshing cooling”. The “side-effect when eyelids get wet after testing” value (closed eyelids [3]; solid dispersed in saline, 1 and 2 mg/mL) was “the cooling sensations returned, sometimes with an intensity that could cause discomfort” and the cooling sensation (closed eyelids [5]; 30 mg in 0.1 mL ethanol + 7.4 mL glycerol + 7.5 mL water) was “Mild and persistent cooling”.
